Legend:
Type in all cases: ADME, organism-based
[1] = (§1) Mean pharmacokinetic parameters for Rosiglitazone following single oral doses to 32 healthy fasted or fed subjects.; design: dose 8 mg, dose 2 mg, dose 1 mg, route oral; conditions: human, in vivo; dietary status Fasting, dose 1 mg, dosed compound id 50, dosed compound name ROSIGLITAZONE, gender male and female, regimen Single dose, route oral, tissue Plasma
[2] = system: Homo sapiens; assay: as §1; design: dose 8 mg, dose 2 mg, dose 1 mg, route oral; conditions: in vivo, po, dosed compound id 50, dosed compound name ROSIGLITAZONE, gender male and female, regimen Single dose, tissue Plasma
[3] = system: Homo sapiens; assay: Oral clearance of Rosiglitazone evaluated after oral or intravenous administration of C-14 Rosiglitazone Maleate; conditions: in vivo, dosed compound id 5, dosed compound name ROSIGLITAZONE MALEATE
[4] = dietary status Fasting, dose 2 mg
[5] = dietary status Fasting, dose 8 mg

CN(CCOc1ccc(CC2SC(=O)NC2=O)cc1)c1ccccn1.O=C(O)/C=C\C(=O)O (configuration not stated) [ROSIGLITAZONE MALEATE]
CL/F [1]: 50.5 mL/min | half-life [1]: 3.16 h | CL/F [2, 4]: 2.89 L/h | t1/2 [2, 4]: 3.15 h | CL/F [2, 5]: 2.85 L/h | t1/2 [2, 5]: 3.37 h | CL/F ([2]; dietary status Fed, dose 8 mg): 2.97 L/h | t1/2 ([2]; dietary status Fed, dose 8 mg): 3.59 h | AUC(0 to inf) ([2]; dietary status Fed): 2890 ng·h/mL | Cmax ([2]; dietary status Fed): 432 ng/mL | Excretion ([3]; tissue Feaces): 23% | Excretion ([3]; tissue Urine): 64%

Source: ChEMBL document CHEMBL3832044, “DailyMed|setid=dd8d7ec8-79b0-4152-8789-d247c77232ce | ROSIGLITAZONE MALEATE - rosiglitazone maleate tablet|West-ward Pharmaceutical Corp”
